The supplement of paper PMC6045584
± gives the standard deviation of the averaged measurements.

Assays:
IMATINIB = compound: Cc1ccc(NC(=O)c2ccc(CN3CCN(C)CC3)cc2)cc1Nc1nccc(-c2cccnc2)n1 [IMATINIB]; experiment: surviving fraction relative to DMSO-only wells; higher = less growth inhibition; settings: exposure time: 5 days
Method in brief: (§1)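 Surviving fraction was calculated by normalising CellTiter-Glo luminescence to the median of DMSO-only wells. Tumour cell lines in log phase were seeded in 384-well plates at 250–500 cells per well, and 24 hours later were exposed continuously for five days to inhibitors at 0.5, 1, 5, 10, 50, 100, 500 and 1000 nM.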

LENVATINIB = compound: COc1cc2nccc(Oc3ccc(NC(=O)NC4CC4)c(Cl)c3)c2cc1C(N)=O [LENVATINIB]; experiment: as above; settings: exposure time: 5 days
Method in brief: as §1

Test System	surviving fraction (IMATINIB; 0.5 nM)	surviving fraction (IMATINIB; 1 nM)	surviving fraction (IMATINIB; 5 nM)	surviving fraction (IMATINIB; 10 nM)	surviving fraction (IMATINIB; 50 nM)	surviving fraction (IMATINIB; 100 nM)	surviving fraction (IMATINIB; 500 nM)	surviving fraction (IMATINIB; 1000 nM)	surviving fraction (LENVATINIB; 0.5 nM)	surviving fraction (LENVATINIB; 1 nM)	surviving fraction (LENVATINIB; 5 nM)	surviving fraction (LENVATINIB; 10 nM)	surviving fraction (LENVATINIB; 50 nM)	surviving fraction (LENVATINIB; 100 nM)	surviving fraction (LENVATINIB; 500 nM)	surviving fraction (LENVATINIB; 1000 nM)
SG31 HEADNECK	1.16 ± 0.19	1.33 ± 0.14	1.36 ± 0.36	1.16 ± 0.33	1.07 ± 0.1	0.994 ± 0.022	1.33 ± 0.21	1.18 ± 0.16	1.04 ± 0.17	1.17 ± 0.15	0.975 ± 0.3	0.977 ± 0.066	0.985 ± 0.12	0.967 ± 0.059	1.24 ± 0.09	1.12 ± 0.2
SG32 HEADNECK	–	–	1.2 ± 0.18	–	–	1 ± 0.14	1.17 ± 0.052	1.21 ± 0.16	1.21 ± 0.15	1.38 ± 0.028	1.15 ± 0.14	1.13 ± 0.2	1.05 ± 0.15	1.12 ± 0.2	1.41 ± 0.35	1.15 ± 0.12
SG43 HEADNECK	1.16 ± 0.41	1.07 ± 0.36	0.895 ± 0.2	1.03 ± 0.23	1.01 ± 0.2	0.901 ± 0.27	1.11 ± 0.13	1.16 ± 0.33	0.959 ± 0.18	1.01 ± 0.3	0.772 ± 0.11	0.842 ± 0.098	0.84 ± 0.14	0.93 ± 0.24	1.13 ± 0.17	1.09 ± 0.11
SIHA CERVIX	1.1 ± 0.04	1.1 ± 0.054	–	1.09 ± 0.065	1.15 ± 0.073	1.17 ± 0.054	1.12 ± 0.076	–	1.07 ± 0.016	1.1 ± 0.04	1.12 ± 0.049	1.11 ± 0.085	1.2 ± 0.14	1.18 ± 0.05	1.04 ± 0.13	0.97 ± 0.035
SJSA1 BONE	1.65 ± 0.051	1.71 ± 0.075	1.64 ± 0.1	1.83 ± 0.1	0.61 ± 0.12	1.36 ± 0.01	1.65 ± 0.039	1.33 ± 0.024	1.04 ± 0.034	1.02 ± 0.034	1.09 ± 0.087	1.09 ± 0.051	1.15 ± 0.014	1.07 ± 0.029	1.03 ± 0.022	0.997 ± 0.015
SKBR3 BREAST	1.02 ± 0.2	1.09 ± 0.09	–	1.11 ± 0.14	1.09 ± 0.081	1.16 ± 0.063	1.24 ± 0.15	1.07 ± 0.15	1 ± 0.18	1.08 ± 0.11	1.04 ± 0.15	1.06 ± 0.099	1.05 ± 0.19	1.16 ± 0.11	1.1 ± 0.068	0.944 ± 0.17
SNU475 LIVER	1.04 ± 0.086	–	1.06 ± 0.036	1.07 ± 0.019	1.09 ± 0.0085	–	1.06 ± 0.045	–	1.04 ± 0.069	1.04 ± 0.042	1.02 ± 0.07	1.03 ± 0.03	0.971 ± 0.045	1.03 ± 0.018	0.995 ± 0.037	1 ± 0.016
SUM44 BREAST	1.3 ± 0.48	–	1.24 ± 0.36	1.23 ± 0.28	1.27 ± 0.31	–	1.26 ± 0.34	1.11 ± 0.23	1.01 ± 0.06	1.03 ± 0.054	1.03 ± 0.048	1.04 ± 0.018	1.05 ± 0.044	1.07 ± 0.052	1.03 ± 0.029	1.01 ± 0.015
SUM149 BREAST	1.04 ± 0.08	1.11 ± 0.047	1.07 ± 0.079	1.08 ± 0.072	–	0.951 ± 0.07	0.866 ± 0.045	1.01 ± 0.046	1.07 ± 0.12	1.04 ± 0.061	1.05 ± 0.025	1.02 ± 0.16	1.04 ± 0.076	1.01 ± 0.066	0.992 ± 0.06	0.965 ± 0.084
SUM149.B1*.S BREAST	1.12 ± 0.041	1.11 ± 0.036	1.15 ± 0.04	1.19 ± 0.035	1.19 ± 0.039	1.15 ± 0.038	1.19 ± 0.051	1.18 ± 0.061	1.11 ± 0.031	1.15 ± 0.018	1.15 ± 0.03	1.11 ± 0.044	1.19 ± 0.029	1.15 ± 0.031	1.17 ± 0.052	1.14 ± 0.042
SUM159 BREAST	–	1.11 ± 0.015	1.11 ± 0.024	1.101 ± 0.0045	1.126 ± 0.009	–	1.14 ± 0.02	–	1.16 ± 0.15	1.15 ± 0.11	1.11 ± 0.096	1.13 ± 0.12	1.08 ± 0.034	1.04 ± 0.088	1.08 ± 0.021	1.08 ± 0.017
SYO1 SYNOVIAL	1.03 ± 0.05	1.02 ± 0.028	0.987 ± 0.037	0.955 ± 0.031	0.921 ± 0.035	0.898 ± 0.017	0.88 ± 0.056	0.888 ± 0.023	0.942 ± 0.11	0.962 ± 0.025	0.918 ± 0.017	0.889 ± 0.042	0.768 ± 0.079	0.667 ± 0.042	0.528 ± 0.031	0.504 ± 0.02
T47D BREAST	1.08 ± 0.042	1.05 ± 0.016	1.1 ± 0.02	1.05 ± 0.066	1.13 ± 0.027	1.08 ± 0.036	1.1 ± 0.068	1.07 ± 0.056	1.09 ± 0.018	1.09 ± 0.018	1.08 ± 0.044	1.06 ± 0.057	1.1 ± 0.028	1.13 ± 0.046	1.12 ± 0.064	1.1 ± 0.023
U2OS BONE	1.06 ± 0.021	1.02 ± 0.033	1.07 ± 0.028	1.05 ± 0.028	1.09 ± 0.026	1.113 ± 0.0058	1.15 ± 0.027	1.15 ± 0.018	1.01 ± 0.038	0.99 ± 0.045	1.04 ± 0.039	1.02 ± 0.027	1.02 ± 0.019	1.02 ± 0.033	0.891 ± 0.051	0.832 ± 0.027
VCAP PROSTATE	1.11 ± 0.19	0.949 ± 0.15	–	1.17 ± 0.035	1.22 ± 0.12	1.12 ± 0.13	–	1.05 ± 0.086	1.03 ± 0.038	1.04 ± 0.12	1.17 ± 0.15	1.12 ± 0.1	1.1 ± 0.11	1.17 ± 0.079	0.962 ± 0.097	0.97 ± 0.078
VP229 BREAST	1.29 ± 0.17	1.22 ± 0.091	1.12 ± 0.098	1.2 ± 0.3	1.35 ± 0.1	–	1.16 ± 0.064	1.27 ± 0.12	1.29 ± 0.23	1.14 ± 0.17	1.21 ± 0.093	0.969 ± 0.044	1.36 ± 0.17	1.34 ± 0.14	1.47 ± 0.13	1.42 ± 0.081
YAMATO SYNOVIAL	1.29 ± 0.055	1.19 ± 0.14	1.28 ± 0.14	1.26 ± 0.078	1.23 ± 0.054	1.27 ± 0.15	1.1 ± 0.11	1.05 ± 0.073	1.18 ± 0.073	1.15 ± 0.05	1.13 ± 0.12	1.06 ± 0.072	1.1 ± 0.062	1.14 ± 0.13	0.953 ± 0.08	0.949 ± 0.017
ZR751 BREAST	1.23 ± 0.15	1.15 ± 0.14	1.05 ± 0.1	1.17 ± 0.23	1.16 ± 0.11	1.11 ± 0.063	1.13 ± 0.065	1.07 ± 0.14	1.04 ± 0.12	0.964 ± 0.15	0.926 ± 0.035	0.84 ± 0.071	1.06 ± 0.092	1.1 ± 0.088	0.915 ± 0.23	1.04 ± 0.022
